According to PubChem BioAssay (NCI):
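Dose response: 5 concentrations. Exposure: 48 h. Format: 96-well plates. Endpoint: linear interpolation; highest concentration if not reached. Abbreviation: GI50, concentration required for 50% inhibition of growth. At the TGI there is no net growth.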

Legend:
Assay in all cases: NCI-60 cell line screen, 48 h
OVCAR-3 ovarian = tested on: OVCAR-3 ovarian
A498 renal = tested on: A498 renal
SF-539 CNS = tested on: SF-539 CNS
HT29 colon = tested on: HT29 colon
SNB-19 CNS = tested on: SNB-19 CNS
HS 578T breast = tested on: HS 578T breast
CAKI-1 renal = tested on: CAKI-1 renal
HOP-62 NSCLC = tested on: HOP-62 NSCLC
M14 melanoma = tested on: M14 melanoma
RXF 393 renal = tested on: RXF 393 renal
EKVX NSCLC = tested on: EKVX NSCLC
HCT-116 colon = tested on: HCT-116 colon
NCI/ADR-RES ovarian = tested on: NCI/ADR-RES ovarian
MDA-MB-435 = tested on: MDA-MB-435
ACHN renal = tested on: ACHN renal
MOLT-4 leukemia = tested on: MOLT-4 leukemia
OVCAR-8 ovarian = tested on: OVCAR-8 ovarian
UACC-257 melanoma = tested on: UACC-257 melanoma
HCC-2998 colon = tested on: HCC-2998 colon
SW-620 colon = tested on: SW-620 colon
UO-31 renal = tested on: UO-31 renal
TK-10 renal = tested on: TK-10 renal
MALME-3M melanoma = tested on: MALME-3M melanoma
HOP-92 NSCLC = tested on: HOP-92 NSCLC
NCI-H23 lung = tested on: NCI-H23 lung
SK-OV-3 ovarian = tested on: SK-OV-3 ovarian
SF-295 CNS = tested on: SF-295 CNS
SNB-75 CNS = tested on: SNB-75 CNS
HCT-15 colon = tested on: HCT-15 colon
SN12C renal = tested on: SN12C renal
U251 CNS = tested on: U251 CNS
SK-MEL-28 melanoma = tested on: SK-MEL-28 melanoma
HL-60(TB) leukemia = tested on: HL-60(TB) leukemia
UACC-62 melanoma = tested on: UACC-62 melanoma
BT-549 breast = tested on: BT-549 breast
KM12 colon = tested on: KM12 colon
COLO 205 colon = tested on: COLO 205 colon
SK-MEL-2 melanoma = tested on: SK-MEL-2 melanoma
K-562 leukemia = tested on: K-562 leukemia
NCI-H460 lung = tested on: NCI-H460 lung
OVCAR-4 ovarian = tested on: OVCAR-4 ovarian
CCRF-CEM leukemia = tested on: CCRF-CEM leukemia
DU-145 prostate = tested on: DU-145 prostate
NCI-H522 lung = tested on: NCI-H522 lung
LOX IMVI melanoma = tested on: LOX IMVI melanoma
OVCAR-5 ovarian = tested on: OVCAR-5 ovarian
PC-3 prostate = tested on: PC-3 prostate
SK-MEL-5 melanoma = tested on: SK-MEL-5 melanoma
786-0 renal = tested on: 786-0 renal
MDA-MB-231 breast = tested on: MDA-MB-231 breast
RPMI-8226 leukemia = tested on: RPMI-8226 leukemia
A549 NSCLC = tested on: A549 NSCLC
SR leukemia = tested on: SR leukemia
T-47D breast = tested on: T-47D breast
NCI-H226 lung = tested on: NCI-H226 lung

c1ccc2[nH]c(-c3ccc(OCCCCCOc4ccc(-c5nc6ccccc6[nH]5)cc4)cc3)nc2c1
GI50 (OVCAR-3 ovarian): 828 nM
TGI (OVCAR-3 ovarian): 1840 nM
GI50 (A498 renal): 6.51 µM
TGI (A498 renal): 15.8 µM
GI50 (SF-539 CNS): 835 nM
TGI (SF-539 CNS): 2300 nM
GI50 (HT29 colon): 629 nM
TGI (HT29 colon): 2750 nM
GI50 (SNB-19 CNS): 5.97 µM
TGI (SNB-19 CNS): > 28.4 µM
GI50 (HS 578T breast): 1300 nM
TGI (HS 578T breast): 4.41 µM
GI50 (CAKI-1 renal): 1970 nM
TGI (CAKI-1 renal): 6.8 µM
GI50 (HOP-62 NSCLC): 2230 nM
TGI (HOP-62 NSCLC): 5.15 µM
GI50 (M14 melanoma): 1730 nM
TGI (M14 melanoma): 4.31 µM
GI50 (RXF 393 renal): 1480 nM
TGI (RXF 393 renal): 3.08 µM
GI50 (EKVX NSCLC): 14.8 µM
TGI (EKVX NSCLC): > 70.4 µM
GI50 (HCT-116 colon): 1250 nM
TGI (HCT-116 colon): 3.87 µM
GI50 (NCI/ADR-RES ovarian): 2280 nM
TGI (NCI/ADR-RES ovarian): 7.2 µM
GI50 (MDA-MB-435): 1630 nM
TGI (MDA-MB-435): 3.94 µM
GI50 (ACHN renal): 3.29 µM
TGI (ACHN renal): 11.9 µM
GI50 (MOLT-4 leukemia): 1070 nM
TGI (MOLT-4 leukemia): 3.48 µM
GI50 (OVCAR-8 ovarian): 4.06 µM
TGI (OVCAR-8 ovarian): 11.6 µM
GI50 (UACC-257 melanoma): 1650 nM
TGI (UACC-257 melanoma): 3.83 µM
GI50 (HCC-2998 colon): 2310 nM
TGI (HCC-2998 colon): 7.59 µM
GI50 (SW-620 colon): 1020 nM
TGI (SW-620 colon): 3.69 µM
GI50 (UO-31 renal): 1250 nM
TGI (UO-31 renal): 3.67 µM
GI50 (TK-10 renal): 2050 nM
TGI (TK-10 renal): 3.77 µM
GI50 (MALME-3M melanoma): 2120 nM
TGI (MALME-3M melanoma): 3.93 µM
GI50 (HOP-92 NSCLC): 3.84 µM
TGI (HOP-92 NSCLC): 10.1 µM
GI50 (NCI-H23 lung): 8.89 µM
TGI (NCI-H23 lung): 26 µM
GI50 (SK-OV-3 ovarian): 6.39 µM
TGI (SK-OV-3 ovarian): 17.5 µM
GI50 (SF-295 CNS): 5.61 µM
TGI (SF-295 CNS): 13.1 µM
GI50 (SNB-75 CNS): 1910 nM
TGI (SNB-75 CNS): 3.69 µM
GI50 (HCT-15 colon): 1120 nM
TGI (HCT-15 colon): 8.11 µM
GI50 (SN12C renal): 3.27 µM
TGI (SN12C renal): 10.2 µM
GI50 (U251 CNS): 1910 nM
TGI (U251 CNS): 4.17 µM
GI50 (SK-MEL-28 melanoma): 394 nM
TGI (SK-MEL-28 melanoma): 903 nM
GI50 (HL-60(TB) leukemia): 1280 nM
TGI (HL-60(TB) leukemia): 3.29 µM
GI50 (UACC-62 melanoma): 4.95 µM
TGI (UACC-62 melanoma): 10.8 µM
GI50 (BT-549 breast): 2330 nM
TGI (BT-549 breast): 5.58 µM
GI50 (KM12 colon): 1540 nM
TGI (KM12 colon): 4.17 µM
GI50 (COLO 205 colon): 7.83 µM
TGI (COLO 205 colon): > 34.5 µM
GI50 (SK-MEL-2 melanoma): 6.23 µM
TGI (SK-MEL-2 melanoma): 12.7 µM
GI50 (K-562 leukemia): 1040 nM
GI50 (NCI-H460 lung): 1600 nM
TGI (NCI-H460 lung): > 100 µM
GI50 (OVCAR-4 ovarian): 1760 nM
TGI (OVCAR-4 ovarian): 3.64 µM
GI50 (CCRF-CEM leukemia): 195 nM
TGI (CCRF-CEM leukemia): 540 nM
GI50 (DU-145 prostate): 639 nM
TGI (DU-145 prostate): 3.41 µM
GI50 (NCI-H522 lung): 2290 nM
TGI (NCI-H522 lung): 6.62 µM
GI50 (LOX IMVI melanoma): 1220 nM
TGI (LOX IMVI melanoma): 2570 nM
GI50 (OVCAR-5 ovarian): 2690 nM
TGI (OVCAR-5 ovarian): 6.75 µM
GI50 (PC-3 prostate): 2760 nM
TGI (PC-3 prostate): 8.05 µM
GI50 (SK-MEL-5 melanoma): 1150 nM
TGI (SK-MEL-5 melanoma): 4.94 µM
GI50 (786-0 renal): 2280 nM
TGI (786-0 renal): 5.92 µM
GI50 (MDA-MB-231 breast): 2070 nM
TGI (MDA-MB-231 breast): 7.08 µM
GI50 (RPMI-8226 leukemia): 2210 nM
TGI (RPMI-8226 leukemia): 6.51 µM
GI50 (A549 NSCLC): 2530 nM
TGI (A549 NSCLC): > 47.4 µM
GI50 (SR leukemia): 241 nM
TGI (SR leukemia): 721 nM
GI50 (T-47D breast): 822 nM
TGI (T-47D breast): 2130 nM
GI50 (NCI-H226 lung): 21.3 µM
TGI (NCI-H226 lung): 55.9 µM
